From patent US20250136578A1 (Kolm Therapeutics Inc., priority 2023, published 2025)

Biological target: AR / CBP ternary complex (Homo sapiens, UniProt P10275+Q92793)
Assay: Ternary complex formation assay (sandwich ELISA, AR capture, CBP antibody detection) in VCaP cell lysates
Format: cell-based
Settings: treated 1.5 hours, rabbit CBP or p300 antibody detection, average, read-out: Average Ternary Complex
Experimental: Black MaxiSorp plates: coat with 50 μL of mouse 1/50 diluted AR antibody (Monoclonal Antibody (AR 441 from Thermo Fisher); diluted in phosphate buffered saline (PBS). Spin the liquid to the bottom of the wells, if necessary. Incubate overnight at 4° C. Next day, wash 3 times with 200 μL of TBST. Block with 200 μL of blocking buffer (5% BSA in TBST) at room temperature for 2 hours (BSA: A4503 or A2153 from Sigma). Wash plates 3 times with TBST. Plates are ready for lysates Preparation of dimerizer treated lysates
Culture cells in 96 wells at 50K VCaP cells/well for at least 3 days. Plate in 5% Omega charcoal stripped FBS in total volume of 200 uL. Treat with bifunctional for 1.5 hours by adding 1 μL of 200× stock in DMSO. Aspirate media/compound. Add and pipet-to-mix 70 μL of 1× AlphaLisa Lysis Buffer to each well (Perkin Elmer, AlphaLISA SureFire Ultra, diluted in water). Pipet up and down when adding lysis buffer to disrupt cells. Let lysis proceed for 30 min at 4° C.
Incubate for 1 hour at room temperature. Flick out the lysates. Wash 3 times with TBST. Add 75 μL of rabbit CBP or p300 antibody to each well (diluted 1:5000 in blocking buffer (5% BSA in TBST). CBP antibody: (D6C5) Rabbit mAb #7389; p300 antibody: (D8Z4E) Rabbit mAb #86377. Incubate overnight at 4° C. Wash 3 times with 300 uL TBST, each time on shaker for 5-10 min. Prepare goat anti-rabbit antibody conjugated to HRP (1/100K dilution in blocking buffer) Invitrogen Catalog number: 32260. Add 75 μL of HRP-conjugated goat anti-rabbit antibody. Incubate at room temperature for 1 hour. Flick out the HRP-antibody mixture. Wash 7-8 times with TBST, each time on shaker for 10 min. Later washes try to overflow the wells so that no residual HRP remains bound to the sides of the well. Prepare and add 75 uL/well of QuantaRed Enhance Chemifluorescent HRP Substrate solution. Immediately read fluorescence on BMG ClarioStar (ex: 570/em 585), and repeat the read in 5 minutes and 15 minutes.

AR / CBP ternary complex, sequence (P10275 whole entry): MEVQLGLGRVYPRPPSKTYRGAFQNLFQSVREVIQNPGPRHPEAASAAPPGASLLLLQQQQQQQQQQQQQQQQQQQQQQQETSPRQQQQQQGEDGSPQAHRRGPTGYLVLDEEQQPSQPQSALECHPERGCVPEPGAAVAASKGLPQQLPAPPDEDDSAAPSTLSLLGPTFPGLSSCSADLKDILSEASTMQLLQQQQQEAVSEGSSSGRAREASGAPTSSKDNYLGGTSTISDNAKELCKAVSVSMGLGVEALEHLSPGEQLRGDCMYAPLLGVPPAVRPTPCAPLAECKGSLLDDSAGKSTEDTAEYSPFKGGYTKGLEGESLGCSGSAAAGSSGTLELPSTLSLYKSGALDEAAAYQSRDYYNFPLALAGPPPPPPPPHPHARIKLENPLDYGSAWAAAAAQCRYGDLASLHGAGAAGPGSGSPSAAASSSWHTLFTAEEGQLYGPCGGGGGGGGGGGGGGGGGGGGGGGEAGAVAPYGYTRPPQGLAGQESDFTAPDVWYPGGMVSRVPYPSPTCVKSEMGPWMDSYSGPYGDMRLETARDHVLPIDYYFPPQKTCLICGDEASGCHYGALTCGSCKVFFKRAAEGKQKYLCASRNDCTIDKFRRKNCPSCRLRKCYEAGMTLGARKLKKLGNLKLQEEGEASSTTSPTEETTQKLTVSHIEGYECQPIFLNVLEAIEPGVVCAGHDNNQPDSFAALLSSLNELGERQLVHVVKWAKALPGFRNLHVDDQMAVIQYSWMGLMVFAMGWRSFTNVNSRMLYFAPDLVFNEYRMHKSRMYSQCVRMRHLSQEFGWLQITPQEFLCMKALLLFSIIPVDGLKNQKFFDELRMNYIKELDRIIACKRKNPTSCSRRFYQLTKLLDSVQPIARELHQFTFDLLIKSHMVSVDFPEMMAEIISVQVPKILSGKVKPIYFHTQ
AR / CBP ternary complex, sequence (Q92793 2-2442): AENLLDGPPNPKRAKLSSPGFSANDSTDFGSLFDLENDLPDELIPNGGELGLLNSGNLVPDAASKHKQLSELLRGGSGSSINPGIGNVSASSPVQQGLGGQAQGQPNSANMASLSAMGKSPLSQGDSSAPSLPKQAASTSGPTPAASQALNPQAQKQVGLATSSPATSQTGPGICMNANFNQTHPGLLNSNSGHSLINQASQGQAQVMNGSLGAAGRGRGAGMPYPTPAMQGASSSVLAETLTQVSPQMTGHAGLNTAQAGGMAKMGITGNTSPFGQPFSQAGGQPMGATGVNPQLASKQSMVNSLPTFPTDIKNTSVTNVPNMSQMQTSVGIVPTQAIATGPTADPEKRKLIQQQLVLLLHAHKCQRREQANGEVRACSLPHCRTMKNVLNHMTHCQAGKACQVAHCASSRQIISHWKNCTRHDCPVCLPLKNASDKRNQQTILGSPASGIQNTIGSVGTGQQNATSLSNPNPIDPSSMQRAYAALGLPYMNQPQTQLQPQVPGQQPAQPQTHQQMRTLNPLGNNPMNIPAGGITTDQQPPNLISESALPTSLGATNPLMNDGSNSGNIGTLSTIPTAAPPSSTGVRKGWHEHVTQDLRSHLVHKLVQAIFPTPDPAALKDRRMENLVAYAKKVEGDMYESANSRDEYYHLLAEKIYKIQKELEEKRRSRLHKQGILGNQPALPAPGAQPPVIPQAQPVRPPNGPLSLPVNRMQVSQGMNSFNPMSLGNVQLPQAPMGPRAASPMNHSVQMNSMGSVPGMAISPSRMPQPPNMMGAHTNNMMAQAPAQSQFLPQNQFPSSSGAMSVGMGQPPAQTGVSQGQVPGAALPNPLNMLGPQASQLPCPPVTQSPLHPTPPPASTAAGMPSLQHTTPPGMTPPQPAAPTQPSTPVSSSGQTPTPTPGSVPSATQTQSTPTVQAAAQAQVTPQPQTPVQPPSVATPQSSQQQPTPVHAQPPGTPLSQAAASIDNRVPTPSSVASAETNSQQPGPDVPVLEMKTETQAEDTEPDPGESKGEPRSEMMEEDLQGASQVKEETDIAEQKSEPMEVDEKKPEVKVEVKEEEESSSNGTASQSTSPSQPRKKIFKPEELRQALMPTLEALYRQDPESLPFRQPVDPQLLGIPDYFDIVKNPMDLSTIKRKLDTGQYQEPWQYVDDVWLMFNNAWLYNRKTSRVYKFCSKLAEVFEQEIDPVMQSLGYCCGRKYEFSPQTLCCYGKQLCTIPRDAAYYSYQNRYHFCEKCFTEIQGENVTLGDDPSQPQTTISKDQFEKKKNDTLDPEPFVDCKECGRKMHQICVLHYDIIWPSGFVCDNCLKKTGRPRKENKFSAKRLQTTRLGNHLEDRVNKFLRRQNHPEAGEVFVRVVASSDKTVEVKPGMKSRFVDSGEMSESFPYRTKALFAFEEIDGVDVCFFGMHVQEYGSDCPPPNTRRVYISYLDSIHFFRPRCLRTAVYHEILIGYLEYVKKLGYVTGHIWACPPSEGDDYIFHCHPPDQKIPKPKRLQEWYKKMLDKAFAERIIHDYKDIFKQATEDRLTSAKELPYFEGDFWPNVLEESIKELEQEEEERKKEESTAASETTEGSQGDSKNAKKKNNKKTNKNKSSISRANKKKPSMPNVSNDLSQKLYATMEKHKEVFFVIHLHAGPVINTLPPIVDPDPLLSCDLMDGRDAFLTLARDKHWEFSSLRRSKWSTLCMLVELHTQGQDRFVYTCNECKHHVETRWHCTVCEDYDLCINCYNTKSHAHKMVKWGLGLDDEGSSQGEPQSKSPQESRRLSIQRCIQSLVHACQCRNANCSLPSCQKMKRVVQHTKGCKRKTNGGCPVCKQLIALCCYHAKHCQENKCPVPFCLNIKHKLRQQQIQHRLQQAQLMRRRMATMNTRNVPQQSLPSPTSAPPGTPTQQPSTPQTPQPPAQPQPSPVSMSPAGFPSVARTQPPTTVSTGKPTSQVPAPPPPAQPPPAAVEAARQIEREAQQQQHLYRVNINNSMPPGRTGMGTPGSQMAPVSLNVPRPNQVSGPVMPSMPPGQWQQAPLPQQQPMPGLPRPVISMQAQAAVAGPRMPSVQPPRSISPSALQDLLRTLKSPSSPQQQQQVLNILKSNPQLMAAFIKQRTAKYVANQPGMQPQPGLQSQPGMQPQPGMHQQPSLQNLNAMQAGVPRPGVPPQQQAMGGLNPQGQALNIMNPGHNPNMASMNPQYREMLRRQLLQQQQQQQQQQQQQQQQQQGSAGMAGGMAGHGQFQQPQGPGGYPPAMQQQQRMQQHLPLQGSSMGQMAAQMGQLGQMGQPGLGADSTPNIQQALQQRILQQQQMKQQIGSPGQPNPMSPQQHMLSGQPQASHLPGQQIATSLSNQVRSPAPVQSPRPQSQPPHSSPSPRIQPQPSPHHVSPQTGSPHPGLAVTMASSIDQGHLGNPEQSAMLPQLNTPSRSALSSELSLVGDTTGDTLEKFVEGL

Row | EC50 [nM] | SMILES
1 | 1 to 10 | CC(=O)N1CCc2c(c(N3CCCc4cc(-c5cscn5)c(C(F)F)cc43)nn2C2CCN([C@H]3CCCN(c4ccc(C(=O)N[C@H]5CC[C@H](Oc6ccc(C#N)c(Cl)c6)CC5)nn4)C3)CC2)C1 [Compound 260, 6-[(3S)-3-[4-[5-acetyl-3-[7-(difluoromethyl)-6-thiazol-4-yl-3,4-dihydro-2H-quinolin-1-yl]-6,7-dihydro-4H-pyrazolo[4,3-c]pyridin-1-yl]-1-piperidyl]-1-piperidyl]-N-[4-(3-chloro-4-cyano-phenoxy)cyclohexyl]pyridazine-3-carboxamide]
2 | < 1 | CC(=O)N1CCc2c(c(N3CCCc4cc(-c5cnn(C)c5)c(C(F)F)cc43)nn2C2CCc3c(cnn3C3CCN(c4ccc(C(=O)N[C@H]5CC[C@H](Oc6ccc(C#N)c(Cl)c6)CC5)nn4)CC3)C2)C1 (stereo partly drawn) [Compound 178, 6-[4-[5-[5-acetyl-3-[7-(difluoromethyl)-6-(1-methylpyrazol-4-yl)-3,4-dihydro-2H-quinolin-1-yl]-6,7-dihydro-4H-pyrazolo[4,3-c]pyridin-1-yl]-4,5,6,7-tetrahydroindazol-1-yl]-1-piperidyl]-N-[4-(3-chloro-4-cyano-phenoxy)cyclohexyl]pyridazine-3-carboxamide]
3 | < 1 | CC(=O)N1CCc2c(c(-c3cccc4cc(-c5cnn(CCC6CCN(c7ccc(C(=O)N[C@H]8CC[C@H](Oc9ccc(C#N)c(Cl)c9)CC8)nn7)CC6)c5)ncc34)nn2C2CCOCC2)C1 [Compound 24, 6-[4-[2-[4-[8-(5-acetyl-1-tetrahydropyran-4-yl-6,7-dihydro-4H-pyrazolo[4,3-c]pyridin-3-yl)-3-isoquinolyl]pyrazol-1-yl]ethyl]-1-piperidyl]-N-[4-(3-chloro-4-cyano-phenoxy)cyclohexyl]pyridazine-3-carboxamide]
4 | < 1 | CC(=O)N1CCc2c(c(-c3cccc4cc(-c5cnn(C)c5)ncc34)nn2C2CCN(CC3CCN(c4ncc(C(=O)N[C@H]5CC[C@H](Oc6ccc(C#N)c(Cl)c6)CC5)cn4)CC3)CC2)C1 [Compound 6]
5 | < 1 | COc1cc(O[C@H]2CC[C@H](NC(=O)c3ccc(N4CC5(CCC(N6CCC(n7nc(N8CCCc9cc(-c%10cnn(C)c%10)c(C)cc98)c8c7CCN(C(C)=O)C8)CC6)CC5)C4)nn3)CC2)ccc1C#N [Compound 296, 6-[7-[4-[5-acetyl-3-[7-methyl-6-(1-methylpyrazol-4-yl)-3,4-dihydro-2H-quinolin-1-yl]-6,7-dihydro-4H-pyrazolo[4,3-c]pyridin-1-yl]-1-piperidyl]-2-azaspiro [3.5]nonan-2-yl]-N-[4-(4-cyano-3-methoxy-phenoxy)cyclohexyl] pyridazine-3-carboxamide]
6 | > 100 | CC(=O)N1CCc2c(c(N3CCCc4cc(-c5cnn(C)c5)c(C)cc43)nn2C2CCN(C3CCC4(CC3)CN(c3ccc(C(=O)N[C@H]5CC[C@H](Oc6ccc(C#N)c(C(F)(F)F)c6)CC5)nn3)C4)CC2)C1 [Compound 297]
7 | < 1 | CC(=O)N1CCc2c(c(N3CCCc4cc(C#N)c(C)cc43)nn2C2CCN(C[C@H]3[C@H](C)CN(c4ccc(C(=O)N[C@H]5CC[C@H](Oc6ccc(C#N)c(Cl)c6)CC5)nn4)C[C@@H]3C)CC2)C1 [Compound 285]
8 | < 1 | CC(=O)N1CCc2c(c(N3CCCc4cc(-c5cnn(C)c5)c(C(F)F)cc43)nn2[C@H]2CC[C@@]3(CCN(c4ccc(C(=O)N[C@H]5CC[C@H](Oc6ccc(C#N)c(Cl)c6)CC5)nn4)C3)CC2)C1 [Compound 265, 6-[8-[5-acetyl-3-[7-(difluoromethyl)-6-(1-methylpyrazol-4-yl)-3,4-dihydro-2H-quinolin-1-yl]-6,7-dihydro-4H-pyrazolo[4,3-c]pyridin-1-yl]-2-azaspiro[4.5]decan-2-yl]-N-[4-(3-chloro-4-cyano-phenoxy)cyclohexyl]pyridazine-3-carboxamide]
9 | < 1 | CC(=O)N1CCc2c(c(N3CCCc4cc(-c5cnn(C)c5)c(C(F)F)cc43)nn2C2CCN(CC3CCN(c4nnc(C(=O)N[C@H]5CC[C@H](Oc6ccc(C#N)c(Cl)c6)CC5)s4)CC3)CC2)C1 [Compound 225]
10 | > 100 | CC(=O)N1CCc2c(c(N3CCCc4cc(-c5cnn(C)c5)c(C(F)F)cc43)nn2[C@H]2CC[C@]3(CCCN(c4ccc(C(=O)N[C@H]5CC[C@H](Oc6ccc(C#N)c(Cl)c6)CC5)nn4)C3)CC2)C1 [Compound 266]
11 | < 1 | CC(=O)N1CCc2c(c(N3CCCc4cc(-c5cnn(C)c5)c(C(F)F)cc43)nn2[C@H]2CCC3(CC2)C[C@H](Oc2ccc(C(=O)N[C@H]4CC[C@H](Oc5ccc(C#N)c(Cl)c5)CC4)nn2)C3)C1 (mixture of isomers) [Compound 301, 6-((7-(5-acetyl-3-(7-(difluoromethyl)-6-(1-methyl-1H-pyrazol-4-yl)-3,4-dihydroquinolin-1(2H)-yl)-4,5,6,7-tetrahydro-1H-pyrazolo[4,3-c]pyridin-1-yl)spiro[3.5]nonan-2-yl)oxy)-N-((1SR,4SR)-4-(3-chloro-4-cyanophenoxy)cyclohexyl)pyridazine-3-carboxamide]
12 | < 1 | CC(=O)N1CCc2c(c(N3CCCc4cc(-c5cnn(C)c5)ccc43)nn2C2CCN(CC3CCN(c4ncc(C(=O)N[C@H]5CC[C@H](Oc6ccc(C#N)c(Cl)c6)CC5)cn4)CC3)CC2)C1 [Compound 11, 2-[4-[[4-[5-acetyl-3-[6-(1-methylpyrazol-4-yl)-3,4-dihydro-2H-quinolin-1-yl]-6,7-dihydro-4H-pyrazolo[4,3-c]pyridin-1-yl]-1-piperidyl]methyl]-1-piperidyl]-N-[4-(3-chloro-4-cyano-phenoxy)cyclohexyl]pyrimidine-5-carboxamide]
13 | < 1 | CC(=O)N1CCc2c(c(N3CCCc4cc(-c5cnn(C)c5)c(C(F)F)cc43)nn2C2CCN(C(=O)C3CCN(c4nnc(C(=O)N[C@H]5CC[C@H](Oc6ccc(C#N)c(Cl)c6)CC5)s4)CC3)CC2)C1 [Compound 226, 5-[4-[4-[5-acetyl-3-[7-(difluoromethyl)-6-(1-methylpyrazol-4-yl)-3,4-dihydro-2H-quinolin-1-yl]-6,7-dihydro-4H-pyrazolo[4,3-c]pyridin-1-yl]piperidine-1-carbonyl]-1-piperidyl]-N-[4-(3-chloro-4-cyano-phenoxy)cyclohexyl]-1,3,4-thiadiazole-2-carboxamide]
14 | < 1 | CC(=O)N1CCc2c(c(-c3cccc4cc(-c5cnn(CCN6CCN(c7ccc(C(=O)N[C@H]8CC[C@H](Oc9ccc(C#N)c(Cl)c9)CC8)nn7)CC6)c5)ncc34)nn2C2CCOCC2)C1 [Compound 29, 6-[4-[2-[4-[8-(5-acetyl-1-tetrahydropyran-4-yl-6,7-dihydro-4H-pyrazolo[4,3-c]pyridin-3-yl)-3-isoquinolyl]pyrazol-1-yl]ethyl]piperazin-1-yl]-N-[4-(3-chloro-4-cyano-phenoxy)cyclohexyl]pyridazine-3-carboxamide]
15 | < 1 | CC(=O)N1CCc2c(c(N3CCCc4cc(-c5cnn(C)c5)c(C(F)F)cc43)nn2C2CCN(CC3CCN(c4ncc(C(=O)N[C@H]5CC[C@H](Oc6ccc(C#N)c(Cl)c6)CC5)cn4)CC3)CC2)C1 [Compound 17, 2-[4-[[4-[5-acetyl-3-[7-(difluoromethyl)-6-(1-methylpyrazol-4-yl)-3,4-dihydro-2H-quinolin-1-yl]-6,7-dihydro-4H-pyrazolo[4,3-c]pyridin-1-yl]-1-piperidyl]methyl]-1-piperidyl]-N-[4-(3-chloro-4-cyano-phenoxy)cyclohexyl]pyrimidine-5-carboxamide]
16 | < 1 | CC(=O)N1CCc2c(c(N3CCCc4cc(-c5cnn(C)c5)c(C(F)F)cc43)nn2C2CCN(CC3C(C)CN(c4ccc(C(=O)N[C@H]5CC[C@H](Oc6ccc(C#N)c(C(F)(F)F)c6)CC5)nn4)CC3C)CC2)C1 (stereo partly drawn) [Compound 290, 6-[4-[[4-[5-acetyl-3-[7-(difluoromethyl)-6-(1-methylpyrazol-4-yl)-3,4-dihydro-2H-quinolin-1-yl]-6,7-dihydro-4H-pyrazolo[4,3-c]pyridin-1-yl]-1-piperidyl]methyl]-3,5-dimethyl-1-piperidyl]-N-[4-[4-cyano-3-(trifluoromethyl)phenoxy]cyclohexyl]pyridazine-3-carboxamide]
17 | < 1 | CC(=O)N1CCc2c(c(N3CCCc4cc(-c5cnn(C)c5)c(C(F)F)cc43)nn2C2CCN(C3CC4(CCN(c5ccc(C(=O)N[C@H]6CC[C@H](Oc7ccc(C#N)c(Cl)c7)CC6)nn5)C4)C3)CC2)C1 (stereo partly drawn) [Compound 228, 6-[2-[4-[5-acetyl-3-[7-(difluoromethyl)-6-(1-methylpyrazol-4-yl)-3,4-dihydro-2H-quinolin-1-yl]-6,7-dihydro-4H-pyrazolo[4,3-c]pyridin-1-yl]-1-piperidyl]-6-azaspiro [3.4]octan-6-yl]-N-[4-(3-chloro-4-cyano-phenoxy)cyclohexyl] pyridazine-3-carboxamide]
18 | < 1 | CC(=O)N1CCc2c(c(N3CCCc4cc(-c5ccc(N6CCC(N7CCN(c8ccc(C(=O)N[C@H]9CC[C@H](Oc%10ccc(C#N)c(Cl)c%10)CC9)nn8)CC7)CC6)nc5)c(C(F)F)cc43)nn2C2CCOCC2)C1 [Compound 215]
